Columns and labels:
IspD [1] = target: T1, IspD (Escherichia coli, UniProt Q46893); assay: MESG coupled pyrophosphate assay, inhibition of MEP turnover; format: biochemical
T1 sequence (Q46893 2-236): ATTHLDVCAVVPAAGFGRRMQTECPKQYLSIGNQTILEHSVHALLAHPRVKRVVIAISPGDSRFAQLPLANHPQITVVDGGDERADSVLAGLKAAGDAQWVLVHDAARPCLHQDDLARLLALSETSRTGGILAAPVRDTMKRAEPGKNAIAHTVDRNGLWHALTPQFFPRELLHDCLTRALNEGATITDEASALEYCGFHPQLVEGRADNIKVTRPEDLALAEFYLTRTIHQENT

IspD [2] = target: T2, IspD (Plasmodium falciparum, UniProt Q8I273); assay: as above; format: biochemical
T2 sequence (Q8I273 60-734): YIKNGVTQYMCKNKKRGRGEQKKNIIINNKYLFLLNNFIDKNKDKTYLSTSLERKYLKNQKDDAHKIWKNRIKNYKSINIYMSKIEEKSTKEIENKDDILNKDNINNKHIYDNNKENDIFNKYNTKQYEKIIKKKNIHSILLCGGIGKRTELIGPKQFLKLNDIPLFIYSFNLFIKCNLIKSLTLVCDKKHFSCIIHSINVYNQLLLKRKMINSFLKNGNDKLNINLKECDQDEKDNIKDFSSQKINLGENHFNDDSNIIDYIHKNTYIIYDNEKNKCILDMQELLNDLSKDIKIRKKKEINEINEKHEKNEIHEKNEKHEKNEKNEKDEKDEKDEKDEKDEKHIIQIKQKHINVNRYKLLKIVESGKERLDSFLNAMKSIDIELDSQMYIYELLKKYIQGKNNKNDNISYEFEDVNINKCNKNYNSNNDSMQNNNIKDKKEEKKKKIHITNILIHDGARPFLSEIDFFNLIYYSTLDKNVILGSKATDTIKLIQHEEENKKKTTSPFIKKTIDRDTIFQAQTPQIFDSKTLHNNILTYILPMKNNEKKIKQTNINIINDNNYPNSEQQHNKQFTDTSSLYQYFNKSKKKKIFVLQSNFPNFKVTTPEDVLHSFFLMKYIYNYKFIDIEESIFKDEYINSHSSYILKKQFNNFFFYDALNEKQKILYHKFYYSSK

SMILES: C[C@](O)(CO)[C@H](O)C[C@@H](F)P(=O)(O)O [5b, (5S)-D-methylerythritol monofluoromethyl phosphonate]
- IC50 (IspD [1]): 700 ± 100 µM
- IC50 (IspD [2]): 1300 ± 700 µM

Reference: paper PMC6133773 (The Journal of organic chemistry, 2018)
